What all share (format): physicochemical
A short description of data set [1]: XRPD of Tiacumicin solvate forms during storage. As to conditions: FIG. 8A / FIG. 9A. From the text:
FIG. 8A: XRPD of the Tiacumicin solvate form a during storage. FIG. 9A: XRPD of the Tiacumicin solvate form β during storage. The obtained material comprised 16% w/w acetic acid as measured by TG-FTIR. The obtained material comprised 9% w/w isopropylacetate as measured by TG-FTIR.

The nature of data set [2]: Hygroscopicity / water uptake of high purity amorphous Tiacumicin material. From the text: Thus the high purity amorphous Tiacumicin material is relatively stable with respect to crystallization and suitable for long-term storage (e.g storage for 3 months, 6 months, 9 months etc.).
Data set [3] can be described thus: Stability of high purity amorphous Tiacumicin material on storage (XRPD). The procedure:
Stoe Stadi P; Mythen1K Detector; Cu-Kα1 radiation; standard measurement conditions: transmission; 40 kV and 40 mA tube power; curved Ge monochromator; 0.02°2θ step size, 12 s step time, 1.5-50.5°2θ scanning range; detector mode: step scan; 1°2θ detector step; standard sample preparation: 10 to 20 mg sample was placed between two acetate foils; sample holder: Stoe transmission sample holder; the sample was rotated during the measurement. Filenames of patterns recorded on this instrument consist of a three-digit number followed by a letter.
Bruker D8; Copper Ka radiation, 40 kV/40 mA; LynxEye detector, 0.02°2θ step size, 37 s step time.
The samples were generally measured without any special treatment other than the application of slight pressure to get a flat surface. Silicon single crystal sample holder types: a) standard holder for polymorphism screening, 0.1 mm deep, less than 20 mg sample required; b) 0.5 mm deep, 12 mm cavity diameter for c. 40 mg; c) 1.0 mm deep, 12 mm cavity diameter for c. 80 mg. All samples measured on the Bruker D8 are rotated during the measurement.
Several samples of high purity amorphous Tiacumicin B material were stored at 40° C./75% relative humidity.
Several samples of high purity amorphous Tiacumicin B material were stored at room temperature under normal light conditions.

Turning to `CCc1c(Cl)c(O)c(Cl)c(O)c1C(=O)O[C@H]1[C@H](O)[C@H](OC)[C@H](OC/C2=C\C=C\C[C@H](O)/C(C)=C/[C@H](CC)[C@@H](O[C@@H]3OC(C)(C)[C@@H](OC(=O)C(C)C)[C@H](O)[C@@H]3O)/C(C)=C/C(C)=C/C[C@@H]([C@@H](C)O)OC2=O)O[C@@H]1C` [form α of Tiacumicin B, Tiacumicin B], the “Suitability for storage (XRPD during storage)” value in data set [1] is reported as “storage suitable”.
For `CCc1c(Cl)c(O)c(Cl)c(O)c1C(=O)O[C@H]1[C@H](O)[C@H](OC)[C@H](OC/C2=C\C=C\C[C@H](O)/C(C)=C/[C@H](CC)[C@@H](O[C@@H]3OC(C)(C)[C@@H](OC(=O)C(C)C)[C@H](O)[C@@H]3O)/C(C)=C/C(C)=C/C[C@@H]([C@@H](C)O)OC2=O)O[C@@H]1C` [Tiacumicin B], in data set [2], the Deliquescence result was “not deliquescent”. For the same molecule, the “Hygroscopicity (water uptake)” value in data set [2] (FIG. 7C) was “hygroscopic with near linear water uptake”. Moreover, the “Suitability for storage (stability with respect to crystallization)” value in data set [3] (as demonstrated in example 7) is reported as “suitable for storage”. Besides, the “Solid state by XRPD after storage” value is recorded as “amorphous material” in data set [3] (room temperature storage, at 3 months); “amorphous material” in data set [3] (stored at 40° C./75% relative humidity, XRPDs at start, 24 hours, 7 days and 1 month); “amorphous material” in data set [3] (stored at room temperature under normal light conditions, XRPDs at start, 1 month and 2 months).

Source of the values: patent US10227371B2, “Polymorphs and new solid states of tiacumicin B” (XELLIA PHARMACEUTICALS APS, priority 2014, dated 2019).
